Reference: US9636376B2, “Stable compositions of peptide epoxy ketones” (priority 2012, dated 2017)
≈ marks a conversion by molar mass, not a printed value.

Key:
[1] = Effect of pH on saturation solubility of carfilzomib; format: physicochemical; conditions: aqueous buffer, thermodynamic from solid
Text: For instance, a buffer is typically used in the liquid pharmaceutical compositions of the invention to control the pH.

[2] = test system: solid and hematologic tumor cells; conditions: cited from earlier work
proteasome = conditions: blood and tissue; cited from earlier work
[3] = test system: models of multiple myeloma, hematologic, and solid tumors; conditions: cited from earlier work

In the case of `CC(C)C[C@H](NC(=O)[C@H](CCc1ccccc1)NC(=O)CN1CCOCC1)C(=O)N[C@@H](Cc1ccccc1)C(=O)N[C@@H](CC(C)C)C(=O)[C@@]1(C)CO1` [Carfilzomib, (2S)—N—((S)-1-((S)-4-methyl-1-((R)-2-methyloxiran-2-yl)-1-oxopentan-2-ylcarbamoyl)-2-phenylethyl)-2-((S)-2-(2-morpholinoacetamido)-4-phenylbutanamido)-4-methylpentanamide], the solubility ([1]; 1% L-cysteine solution, pH 1.7 (1% L-Cysteine)) was 459 µg/mL (≈ 638 µM), the solubility ([1]; pH 3.5 (15 mM Acetate Buffer)) was 125 µg/mL (≈ 174 µM) and the solubility ([1]; pH 5.0 (15 mM Citrate Buffer)) was 9 µg/mL (≈ 12.5 µM). For the same compound, the solubility ([1]; pH 7.0 (15 mM Phosphate Buffer)) was 5 µg/mL (≈ 6.95 µM), the “Activities in vitro in tumor cells” value [2] was “antiproliferative and proapoptotic activities” and the “Effect on proteasome activity” value (proteasome) was “inhibit proteasome activity”. For the same compound, the “Effect on tumor growth” value [3] was “delay tumor growth”.
